From US20260224538A1 (Purdue Research Foundation, priority 2023, published 2026)

Legend:
Format in all cases: biochemical
TTR101-125 = biological target: T1, TTR101-125 (Homo sapiens, UniProt P02766); experiment: ThT fluorescence assay of TTR101-125 fibril formation; settings: screen on prone-to-aggregate proteins (FIG. 4A)
T1 construct: TTR fragments 1-25, 26-50, 51-75, 76-100, 81-105, 101-125, and 101-125 were obtained from GenScript; purchased GenScript; host or cells: synthetic peptide
Experimental: (§1) Thioflavin-T (ThT) fluorescence assays. Thioflavin-T (ThT) fluorescence assays were used to monitor fibril formation of recombinant Ap (fragments 1-40 and 1-42), recombinant α-syn, recombinant tau isoform 2N4R, synthetic IAPP, and synthetic TTR peptides treated with BTA and its derivatives. The IAPP ThT assay was performed in 10 mM PBS (pH 7.4) at a final concentration of 10 μM for both IAPP and ThT as published previously. Aβ fragments 1-40 and 1-42 were tested at 7 μM in 10 mM of PBS using ThT at a final concentration of 20 μM. Kinetics of α-syn fibrillization were performed as published previously.^36-37 TTR fragment kinetics of fibril formation were assessed at 10 μM in 100 mM sodium acetate buffer supplemented with 100 mM KCl and 1 mM ethylenediaminetetraacetic acid (EDTA) (pH 4) with 20 μM ThT. The fluorescence emission experiments were performed with the excitation and emission wavelengths set at 440 and 485 nm, respectively, with a Synergy HT multi-mode microplate reader (BioTek, Winooski, VT). Samples were measured in three replicates, and the experiments were repeated three times using at least two different stock solutions. For each time point, arbitrary units of fluorescence were calculated from the mean values normalized against the maximum value in each completed assay. The lag time for each condition was calculated as previously described. All results contained in histograms were presented as mean±SEM. Data were analyzed by the one-way analysis of variance with Dunnett's multiple comparisons between controls and compounds. Differences were considered statistically significant at p<0.05.

[1] = biological target: T2, transthyretin fragment peptide (TTR81-127) (Homo sapiens, UniProt P02766); experiment: ThT fluorescence assay of TTR81-127 fibril formation; settings: compounds at 100 μM, TTR81-127 10 μM, control 0.25% DMSO
T2 construct: TTR fragment 81-127 was obtained from AnaSpec; purchased AnaSpec; host or cells: synthetic peptide
Experimental: as §1

tau isoform 2N4R [2] = biological target: T3, tau isoform 2N4R (Homo sapiens, UniProt P10636); experiment: PICUP, tau isoform 2N4R oligomerization
T3 construct: made in house; host or cells: E. coli BL21(DE3)
T3 sequence (P10636 1-441 isoform P10636-8): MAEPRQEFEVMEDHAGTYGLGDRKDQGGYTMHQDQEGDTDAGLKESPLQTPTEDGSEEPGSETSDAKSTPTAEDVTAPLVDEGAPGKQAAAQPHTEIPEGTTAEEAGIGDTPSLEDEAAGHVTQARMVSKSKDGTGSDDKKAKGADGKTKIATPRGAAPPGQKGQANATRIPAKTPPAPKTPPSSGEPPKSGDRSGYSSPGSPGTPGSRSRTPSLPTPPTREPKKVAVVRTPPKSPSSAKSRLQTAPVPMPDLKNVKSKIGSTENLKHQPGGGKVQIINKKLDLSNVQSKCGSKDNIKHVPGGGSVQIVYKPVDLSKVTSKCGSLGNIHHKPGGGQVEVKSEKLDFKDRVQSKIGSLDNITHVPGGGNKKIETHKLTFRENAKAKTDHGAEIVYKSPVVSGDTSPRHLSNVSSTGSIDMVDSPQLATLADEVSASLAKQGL
Experimental: (§2) The bacterial expression plasmid consisting of the vector pRK172 carrying a cDNA encoding the human Tau 2N4R isoform was obtained from Dr. David Eliezer (Weill Cornell Medicine, New York, NJ). For protein expression, E. coli BL21(DE3) cells were transformed with the plasmid and grown in LB media supplemented with ampicillin (100 μg/mL). Protein over-expression was induced by the addition of 1 mM IPTG for 4 hours at 37° C., and cells were pelleted by centrifugation at 6,000 g for 15 minutes at 4° C. The cells were resuspended in lysis buffer (20 mM MES, 400 mM NaCl, 0.2 mM MgCl2, 1 mM EGTA, protease inhibitor cocktail (P8340, Sigma Aldrich), 0.25 mg/mL lysozyme, and 1 μg/mL DNase 1, pH 6.8) and lysed by a French press cell disruptor at 4° C., after which the lysate was boiled for 20 minutes. Denatured proteins were pelleted by centrifugation at 30,000 g for 30 minutes at 4° C., and the supernatant was dialyzed overnight against cation exchange buffer (20 mM MES, 50 mM NaCl, 1 mM MgCl2, 1 mM EGTA, 2 mM DTT, 0.1 mM PMSF, pH 6.8). The dialysate was loaded onto a HiPrep SP HP column, and proteins were eluted with a linear gradient ranging from 50 mM to 1 M NaCl. Fractions containing tau isoform 2N4R were pooled, and the resulting protein solution was dialyzed against PBS (pH 7.4) and stored at −80° C.
Photo-induced Cross-linking of Unmodified Proteins (PICUP) Assay. To induce oligomerization by cross-linking, α-syn (from Rpeptide, LLC) and tau isoform 2N4R were diluted in 10 mM phosphate buffer (pH 7.4) to reach a final concentration of 10 μM. Different compounds were added to the protein solution at a final concentration of 50 μM, resulting in a molar ratio of 1:5. To confirm the gradual effect of the compounds on the inhibition of α-syn oligomerization, the compounds were tested at final concentrations of 3.125, 6.25, 12.5, 25, and 50 μM. The controls consisted of samples without light exposition, without Ru(bpy) or ammonium persulfate, and without compound (i.e., 0.125% DMSO). The cross-linking reaction was initiated by the addition of 2 μL of Ru(bpy) (300 μM final concentration) and 2 μL ammonium persulfate (6 mM final concentration). Samples were irradiated immediately. Light exposure was of a one-second duration for α-syn and a three-second duration for tau isoform 2N4R, with a 53 W (120 V) incandescent lamp installed in a homemade dark-box. Each tube contained a final volume of 20 μL. After irradiation, 8.3 μL of Laemmli loading buffer containing 15% β-mercaptoethanol were immediately added to the solution, followed by incubation at 95° C. for 10 minutes. The cross-linked samples were separated on a 16% SDS-PAGE gel and visualized by Coomassie blue staining.

α-synuclein (α-syn) = biological target: T4, α-synuclein (α-syn) (Homo sapiens, UniProt P37840); experiment: Thioflavin-T (ThT) fluorescence assay of α-syn fibril formation
T4 construct: purchased rPeptide
Experimental: as §1
(§3) Compounds with the highest anti-fibrillary activity were tested at 3.125, 6.25, 12.5, 25, 50, and 100 μM to obtain dose-response curves with prepared α-syn and 2N4R tau at 6.25 μM and 6 μM, respectively. Compounds were tested with α-syn using a previously published procedure. Concerning the tau (isoform 2N4R) kinetics of fibril formation, measurements of ThT fluorescence were performed with a solution of the protein diluted to a final concentration of 6 μM in PBS (pH 7.4) supplemented with 1.5 μM heparin, 20 μM ThT, 2.5 mM DTT, and 100 μM compound. Aliquots of the diluted protein solution (100 μL each) were pipetted into the wells of a 96-well plate, and a Teflon ball was added to each well. The plate was incubated at 37° C. with constant shaking at 1,000 rpm in a Tecan Spark plate reader. ThT fluorescence was measured every 15 minutes with excitation and emission wavelengths of 440 nm and 480 nm, and the data were plotted using GraphPad Prism.

Aβ1-42 = biological target: T5, Aβ1-42 (Homo sapiens, UniProt P05067); experiment: ThT fluorescence assay of Aβ1-42 fibril formation; settings: screen on prone-to-aggregate proteins (FIG. 2A, FIG. 4A); Aβ 7 μM
T5 construct: α-syn, Aβ1-40, Aβ1-42 were procured from rPeptide; purchased rPeptide
T5 sequence (P05067 672-713 limits assumed): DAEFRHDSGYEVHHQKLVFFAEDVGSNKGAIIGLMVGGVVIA
Experimental: as §1

tau isoform 2N4R [3] = biological target: T3, tau isoform 2N4R; experiment: ThT kinetics of tau isoform 2N4R fibril formation
Experimental: as §2, §3

Nc1nsc2ccc([N+](=O)[O-])cc12 [A, 5-nitro-1,2-benzothiazol-3-amine]
thioflavin T fluorescence intensity, TTR101-125 (TTR101-125): significantly more effective at preventing the aggregation
ThT TTR81-127 (%), maximum thioflavin T (ThT) intensity in percentage [1]: 54.7 ± 1.4%
remaining activity at 100 µM ([1]; read-out: ThT TTR81-127 (%), maximum thioflavin T (ThT) intensity in percentage): 54.7 ± 1.4%
tau isoform 2N4R oligomer formation (PICUP), dose dependence (tau isoform 2N4R [2]; 3.125-50 μM): reduced the oligomer formation in a dose-dependent manner
tau isoform 2N4R oligomer formation (PICUP) (tau isoform 2N4R [2]; compound 50 μM): reduced α-syn and tau isoform 2N4R oligomer formation
α-syn fibrillization (ThT), dose response (α-synuclein (α-syn); 3.125-100 μM, plateau phase): protein fibrillization was reduced
remaining activity at 100 µM (α-synuclein (α-syn); compounds at 100 μM, α-syn 6.25 μM, control 0.25% DMSO, read-out: ThT a-Syn (%), maximum thioflavin T (ThT) intensity in percentage): 36.2 ± 3.1%
thioflavin T fluorescence intensity, α-syn (α-synuclein (α-syn); screen on prone-to-aggregate proteins (FIG. 2A, FIG. 4A)): significantly more effective at preventing the aggregation
thioflavin T fluorescence intensity, Aβ1-42 (Aβ1-42): 27.5±4%
tau isoform 2N4R fibrillization (ThT), dose response (tau isoform 2N4R [3]; 3.125-100 μM, at 15 hours): protein fibrillization was reduced
lag time of tau isoform 2N4R fibril formation (tau isoform 2N4R [3]; tau 6 μM, compound 100 μM): delayed the lag time
production of tau isoform 2N4R fibrils (ThT kinetic aggregation curves) (tau isoform 2N4R [3]; tau 6 μM, compound 100 μM): demonstrating the best anti-fibrillary activity
